Assays:
ERBB2 = molecular target: T1, ERBB2 (Homo sapiens, UniProt P04626); test: HotSpot kinase enzymatic assay, ERBB2; type: biochemical; conditions: mean of two experiments
T1 construct: purchased Reaction Biology Corporation
Experimental: (§1) Therefore, efforts have focused on developing new compounds with good selectivity profiles. […] Compound 8 was selective against BTK. The biochemical activities of compound 8 differed among TEC family kinases. […] The inhibitory potential of compound 8 differed between members of the EGFR family. […] The inhibitory activity of compound 8 against JAK3 was also low.
(§2) Kinase enzymatic assays for BTK, BMX, TXK, TEC, ITK, EGFR, ERBB2, ERBB4, and JAK3 were performed at Reaction Biology Corporation (www.reactionbiology.com, Malvern, PA, USA) using the HotSpot assay platform. Briefly, specific kinase/substrate pairs and the required cofactors were prepared in a reaction buffer comprising 20 mM HEPES (pH 7.5), 10 mM MgCl2, 1 mM EGTA, 0.02% Brij35, 0.02 mg/mL BSA, 0.1 mM Na3VO4, 2 mM DTT, and 1% DMSO. The compounds were added to the reaction mixture and allowed to incubate. Approximately 20 min later, a mixture of ATP (Sigma-Aldrich, St. Louis, MO, USA) and ^33P ATP (PerkinElmer, Waltham, MA, USA) was added to the reaction mixture at a final concentration of 10 μM. The reactions were performed at room temperature for 120 min; subsequently, the reactions were spotted onto P81 ion exchange filter papers (Whatman Inc., Maidstone, UK). Any unbound phosphate was removed by thoroughly washing the filter papers with 0.75% phosphoric acid. […]

JAK3 = molecular target: T2, JAK3 (Homo sapiens, UniProt P52333); test: HotSpot kinase enzymatic assay, JAK3; type: biochemical
T2 construct: purchased Reaction Biology Corporation
T2 sequence (P52333 1-1124): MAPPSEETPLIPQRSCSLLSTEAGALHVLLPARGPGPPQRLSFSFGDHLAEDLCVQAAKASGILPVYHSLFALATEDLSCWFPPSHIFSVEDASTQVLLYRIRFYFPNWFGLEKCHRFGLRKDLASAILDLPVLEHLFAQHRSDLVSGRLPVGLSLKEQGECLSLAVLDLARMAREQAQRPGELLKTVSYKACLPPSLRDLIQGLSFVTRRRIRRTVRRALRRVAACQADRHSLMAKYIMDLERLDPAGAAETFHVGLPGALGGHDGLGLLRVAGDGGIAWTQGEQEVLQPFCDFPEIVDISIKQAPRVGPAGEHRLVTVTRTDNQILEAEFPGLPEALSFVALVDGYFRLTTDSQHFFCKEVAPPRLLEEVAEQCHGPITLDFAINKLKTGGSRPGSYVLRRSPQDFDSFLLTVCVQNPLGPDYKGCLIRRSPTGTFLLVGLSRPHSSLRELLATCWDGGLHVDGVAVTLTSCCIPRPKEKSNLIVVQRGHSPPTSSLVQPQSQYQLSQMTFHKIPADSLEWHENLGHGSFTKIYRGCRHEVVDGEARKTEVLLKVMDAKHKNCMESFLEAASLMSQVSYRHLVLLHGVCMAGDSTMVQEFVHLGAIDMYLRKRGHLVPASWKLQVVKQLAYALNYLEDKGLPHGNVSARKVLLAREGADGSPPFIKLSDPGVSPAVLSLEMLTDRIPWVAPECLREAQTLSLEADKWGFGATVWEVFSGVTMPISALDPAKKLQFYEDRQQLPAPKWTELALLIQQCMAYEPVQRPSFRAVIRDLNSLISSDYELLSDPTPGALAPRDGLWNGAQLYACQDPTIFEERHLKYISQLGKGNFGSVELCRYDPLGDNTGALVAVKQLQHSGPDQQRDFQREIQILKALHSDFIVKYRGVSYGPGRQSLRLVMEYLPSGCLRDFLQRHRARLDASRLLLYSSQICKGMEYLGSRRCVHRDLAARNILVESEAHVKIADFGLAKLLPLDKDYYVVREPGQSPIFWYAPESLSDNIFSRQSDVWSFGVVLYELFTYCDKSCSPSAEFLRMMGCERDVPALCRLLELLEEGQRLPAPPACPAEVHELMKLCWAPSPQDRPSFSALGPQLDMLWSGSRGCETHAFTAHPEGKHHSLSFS
Experimental: as §1, §2

[1] = test system: collagen-induced arthritis (CIA); test: Murine model of collagen-induced arthritis (CIA); type: in vivo
Experimental: The in vivo efficacy of compound 8 was evaluated in a murine inflammatory model of collagen-induced arthritis (CIA). The study included four groups: a vehicle-treated control group and three treatment groups. The treatment groups comprised a dexamethasone-treated group, in which dexamethasone served as the positive control, and two treatment groups, in which animals were treated with compound 8 at doses of 10 and 50 mg/kg. Compound 8 was administered once daily for 15 days by oral gavage, and the in vivo efficacy was evaluated by measuring the clinical score and foot volume. […] There were no significant changes in the body weights of animals in all the treatment groups (data not shown) during treatment.
The animal study was approved by the Institutional Animal Care and Use Committee (IACUC) of the Korea Research Institute of Bioscience and Biotechnology on March 15, 2017, under approval number KRIBB-AEC-17090. Male DBA1/JNCrli mice (7 weeks old) were purchased from Japan CRL, Inc. The mice were housed in specific pathogen-free (SPF) conditions and were allowed ad libitum access to food and water. After 7 days of acclimatization, the mice were immunized with 0.05 mL of a type II collagen emulsion (Hooke Kit^TM Chicken Collagen, Cat. No. EK-0210 from Hooke) and Freund’s complete adjuvant by subcutaneous injection at 1.5 cm distal from the base of the tail. After 21 days, the immunized mice were administered a booster injection with 0.05 mL of a type II collagen emulsion (Hooke Kit^TM Chicken Collagen, Cat. No. EK-0211 from Hooke) and Freund’s incomplete adjuvant. The emulsions were prepared according to the manufacturer’s instructions. On day 21, the mice with CIA were randomized into four groups. The animals in the four groups were administered either 0.3 mg/kg dexamethasone (n = 5), 10 mg/kg compound 8 (n = 5), 50 mg/kg compound 8 (n = 5), or vehicle (n = 5), once a day, for […], orally. The vehicle, in which all test compounds were suspended, comprised DMAC (10%), Tween 80 (10%), and DW (80%). Clinical arthritis scores and body weights were assessed three times per week for 15 days. The paw volumes were measured using a LE7500 plethysmometer (Panlab, Barcelona, Spain) on days 0 and 42.

T1 sequence (P04626 23-1255): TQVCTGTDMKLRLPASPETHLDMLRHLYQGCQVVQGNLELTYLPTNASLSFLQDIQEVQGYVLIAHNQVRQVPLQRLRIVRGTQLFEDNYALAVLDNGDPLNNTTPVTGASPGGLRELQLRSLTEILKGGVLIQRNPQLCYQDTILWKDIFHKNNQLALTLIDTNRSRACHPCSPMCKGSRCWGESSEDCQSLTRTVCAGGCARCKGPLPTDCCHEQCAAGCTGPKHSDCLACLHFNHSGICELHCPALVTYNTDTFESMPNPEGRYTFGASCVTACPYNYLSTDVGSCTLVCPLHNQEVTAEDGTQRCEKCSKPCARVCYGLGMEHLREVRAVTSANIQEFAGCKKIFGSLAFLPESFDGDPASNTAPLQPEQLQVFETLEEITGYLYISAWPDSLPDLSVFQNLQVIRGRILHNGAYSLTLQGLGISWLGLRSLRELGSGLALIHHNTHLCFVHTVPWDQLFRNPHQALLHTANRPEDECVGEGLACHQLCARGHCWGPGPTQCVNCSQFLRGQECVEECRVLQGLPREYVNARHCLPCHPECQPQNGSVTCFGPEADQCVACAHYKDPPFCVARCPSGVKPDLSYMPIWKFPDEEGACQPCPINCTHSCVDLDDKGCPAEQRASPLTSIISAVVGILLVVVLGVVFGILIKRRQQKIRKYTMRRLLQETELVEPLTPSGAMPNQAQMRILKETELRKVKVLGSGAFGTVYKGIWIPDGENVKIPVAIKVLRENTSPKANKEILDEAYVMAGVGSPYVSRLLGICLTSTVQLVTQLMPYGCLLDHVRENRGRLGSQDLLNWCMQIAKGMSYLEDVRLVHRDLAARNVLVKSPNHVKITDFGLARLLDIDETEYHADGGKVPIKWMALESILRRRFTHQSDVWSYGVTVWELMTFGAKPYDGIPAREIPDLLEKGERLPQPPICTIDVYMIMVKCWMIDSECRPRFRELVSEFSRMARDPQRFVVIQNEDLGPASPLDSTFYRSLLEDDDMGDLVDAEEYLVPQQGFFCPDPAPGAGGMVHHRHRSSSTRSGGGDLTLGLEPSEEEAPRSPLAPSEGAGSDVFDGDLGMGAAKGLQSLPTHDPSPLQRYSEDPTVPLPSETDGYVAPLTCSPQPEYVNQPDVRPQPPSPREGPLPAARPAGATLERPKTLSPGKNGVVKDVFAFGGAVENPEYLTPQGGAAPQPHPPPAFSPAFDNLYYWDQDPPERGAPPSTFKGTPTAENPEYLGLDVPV

C=CC(=O)O[C@H]1Cc2cc3ccc(=O)oc3cc2OC1(C)C [Compound 8, (7S)-(+)-Acrylic acid, 8,8-dimethyl-2-oxo-6,7-dihydro-2H,8H-pyrano [3,2-g]chromen-7-yl ester]
inhibition at 10 µM (ERBB2): 59.2% | inhibitory activity against JAK3 (in words) (JAK3): low | inhibition at 10 µM (JAK3; 10 µM, mean of two experiments): 13.2% | toxicity ([1]; mice with CIA, 10 and 50 mg/kg oral): no obvious toxicity | efficacy compared with dexamethasone ([1]; mice, 50 mg/kg oral, dexamethasone 0.3 mg/kg): comparable to that of dexamethasone at 0.3 mg/kg | clinical scores vs control ([1]; mice, 10 and 50 mg/kg, daily oral, t-test): differed significantly from those with the control | severity of CIA (clinical score and foot volume) ([1]; mice, 10 and 50 mg/kg, once daily, oral gavage, 15 days): significantly reduced the severity of CIA in a dose-dependent manner
